# Results published in patent US12128072B2, “Hepatocytes and hepatic non-parenchymal cells, and methods for preparation thereof” (The University of Tokyo, priority 2015, dated 2024).
# Test system: mouse CD45-FLK1+CD31+CD34+ cells (liver sinusoidal endothelial progenitor cells)
# Experiment: Expression of liver sinusoidal endothelial cell marker genes by quantitative RT-PCR in mouse embryonic liver FLK1+CD31+CD34+ cells
# Type: cell-based
# Settings: 5 days after addition of A83-01, versus day 0 before addition; FIG. 45
# Description: TRIzol reagent (Life Technologies) or NucleoSpin RNA XS (MACHEREY-NAGAL, Duren, Germany) was used to extract the RNA. The remaining genomic DNA was digested using DNaseI (Life Technologies), and then a PrimeScript II 1st strand cDNA Synthesis Kit (Takara Bio, Shiga, Japan) was used to synthesize single-stranded cDNA. The quantitative RT-PCR was carried out using SYBR Premix EX TaqII (Takara Bio, Shiga, Japan), and the data were calculated according to the ddCt method with β-actin as the standardization control.
# Liver was collected from a 12.5-day-old mouse embryo (C57BL/6 mouse). The liver was minced and digested for 10 minutes with Liver Digestion Medium (Life Technologies, California, US). The digested embryonic mouse hepatocytes were subjected to hemolysis and passed through a 70 μm cell strainer (BD Bioscience, New Jersey, US). […]
# The FLK1^+CD31^+CD34^+ cells separated above were also seeded in a fibronectin-coated plate to 15,000 cells/cm^2 and cultured in endothelial cell medium. […] The cell count was calculated using a hemocytometer, after dissociating the cells using 0.05% trypsin/0.5 mM EDTA.
structure (smiles),measurement,value
"Cc1cccc(-c2nn(C(=S)Nc3ccccc3)cc2-c2ccnc3ccccc23)n1 [A83-01, 3-(6-methyl-2-pyridinyl)-N-phenyl-4-(4-quinolinyl)-1H-pyrazolo-1-carbothioamide]","expression of the mature liver sinusoidal endothelial cell marker genes Stab2, F8 and Lyve1",significantly induced expression
